Source: patent US9849145B2, “Pharmaceutical composition containing honeysuckle extract and antibiotics, pharmaceutical kit, and use of honeysuckle extract for preparation of drug” (priority 2011, dated 2017)
Several values for one entry are separate records, joined by “and”; a condition that tells them apart may be missing. Equal values may be shown once.

Legend:
[1] = system: AMP-sensitive strain; test: AMP-sensitive bacterium infection model in mice (quality control); assay type: in vivo, KM mice; conditions: for protection / control of infection by AMP alone (in words): AMP-sensitive bacterium infection model-AMP intervention control group
From the text: The control strain is clinically isolated AMP-sensitive strain, which was isolated from the sputum specimen of the patient in the ward of the Fourth People's Hospital of Jinan in 2010, and preserved until today.
(§1) KM mice were purchased from the Experimental Animal Center of Shandong University, weighing 16-18 g, with half male and half female and animal license number of SCXK (Lu) 20090001.
(§2) There were 5 control groups with 10 mice in each group: normal control group, AMP-sensitive bacterium quality control model control group (AMPS) and the treatment group thereof, AMP-resistant bacterium model control group (AMPR) and the treatment group thereof;
(§3) After being grouped, the animals were injected intraperitoneally with 2.5×10^7 (Klebsiella pneumoniae)*100 μL^−1 per animal, then immediately treated by administration, and the route of administration alternated between tail intravenous injection and intraperitoneal injection (the sterile normal saline was used as the solvent for drugs except W, since continuous tail intravenous injection causes damage to tail veins, therefore the tail intravenous injection and intraperitoneal injection were performed alternatively), the animal was injected once a day for 5 days continuously. The efficacy of each group was evaluated according to the animal mortality and intraperitoneal bacterial count.
(§4) Intraperitoneal bacterium counting of dead animals: the animals were injected intraperitoneally with 1 ml sterile normal saline immediately after they died, and the abdomens of the animals were kneaded gently for 1 min, the ascites was drawn and coated on the plate after gradient dilution, and cultured at 37° C. overnight, then the colonies were counted;
(§5) Intraperitoneal bacterium counting of surviving animals: the mice were administrated continuously for 5 days and sacrificed through dislocation 2 h after the last administration, then the mice were injected intraperitoneally with 1 ml sterile normal saline, and the abdomens of the mice were kneaded gently for 1 min, the ascites was drawn and coated on the plate after gradient dilution, and cultured at 37° C. overnight, then the colonies were counted, colony count results of the control groups are shown in table 9 below, and colony count results of the experimental groups are shown in table 10 below.

[2] = system: Klebsiella pneumoniae; test: Bacterial inhibition test of antibiotics, Klebsiella pneumoniae; assay type: cell-based; conditions: 2-fold dilutions from 1 mg/mL to 1:2048; 37° C. 20 h; 630 nm
Description: In this example, bacterial inhibition effects of antibiotics on the four multiple resistant bacteria in Tables 1-4 were measured.
The activated bacterium suspension was diluted to a concentration equivalent to 0.5 McFarland turbidity standard, and diluted with the culture medium of MH broth in a proportion of 1:1000, and then added into each well in amount of 100 μL per well.
The antibiotics resisted by the above four multiple resistant bacteria were diluted to 1:2048 (2^−11) from 1 mg/mL (initial concentration) by 2-fold dilution, and then the original solution and different concentrations of diluted antibiotics were added respectively into the well containing the bacterium suspension, with each well added with 100 μL, and the minimum inhibitory concentration (MIC) of each antibiotic was recorded finally.
Meanwhile, a bacterium solution control (that is, bacterium solution plus an equal volume of culture medium) and a blank culture medium control were set.
Cultivation was performed at 37° C. for 20 h, and detection was performed at 630 nm by the microplate reader, and the bacterial inhibition rate is calculated according to formula (2), and the data obtained is put into formula (1) to calculate specific distance, and the specific distance is added to the virus dilution index with pathologic rate less than 50% to obtain half inhibitory concentration (Reed-Muench method). […]

[3] = system: Klebsiella pneumoniae; set-up: key: Resistant; Sensitive; Intermediate degree (moderate resistance); conditions: clinical isolate, specimen 31494, sputum; cited from earlier work
[4] = system: Pseudomona aeruginosa; set-up: key: Resistant; Sensitive; Intermediate degree (moderate resistance); conditions: clinical isolate, specimen 12; cited from earlier work
[5] = system: Escherichia coli; set-up: key: Resistant; Sensitive; Intermediate degree (moderate resistance); conditions: clinical isolate, specimen 32042, urine; cited from earlier work
[6] = system: Klebsiella pneumoniae; set-up: key: Resistant; Sensitive; Intermediate degree (moderate resistance); conditions: clinical isolate, specimen 31853, urine; cited from earlier work
[7] = system: AMP-resistant Klebsiella pneumoniae; test: AMP-resistant bacterium infection model in mice (mortality, intraperitoneal colony count); assay type: in vivo, KM mice; conditions: for protection / control of infection by AMP alone (in words): AMP-resistant bacterium infection model-AMP intervention control group
From the text: This example studies the antimicrobial effects in vivo of the honeysuckle extracts N1 to N4 which are respectively combined with antibiotics, and the antimicrobial effects were compared with that of the honeysuckle water decoction W combined with the antibiotic.
The experimental strain is Klebsiella pneumoniae which was isolated from the sputum specimen of the patient in the ward of the Fourth People's Hospital of Jinan in 2010, and detection of the drug resistant spectrum is shown in Table 6 below.
as §1, §2
There were 15 experimental groups with 10 mice in each group: N1 to N4 and W were respectively combined with AMP high-dose group, AMP medium-dose group and AMP low-dose group.
as §3, §4, §5

[8] = AMP-sensitive bacterium model, AMP 16.80 mg per mouse alone, n = 10
[9] = AMP intervention control group: AMP 16.80 mg per mouse alone, n = 10

**Q.** For `CC1(C)S[C@@H]2[C@H](NC(=O)[C@H](N)c3ccccc3)C(=O)N2[C@H]1C(=O)O` [AMP, ampicillin], which “protection / control of infection by AMP alone (in words)” value (“protection / control of infection” for short) [1] is on record?
**A.** Its value is “protected effectively”.

**Q.** What about the “protection / control of infection” value ([1]; listed as ampicillin) of the same compound?
**A.** Its value is “sensitive to ampicillin”.

**Q.** And the “Mortality (%)” value [1, 8]?
**A.** Its value is 0%.

**Q.** And the “Number of deaths 1st day” value [1, 8]?
**A.** The value was 0.

**Q.** And the “Number of deaths 2nd day” value [1, 8]?
**A.** Its value is 0.

**Q.** What about the “Number of deaths 3rd day” value [1, 8] of the same compound?
**A.** Its value is 0.

**Q.** And the “Number of deaths 4th day” value [1, 8]?
**A.** Its value is 0.

**Q.** And the “Number of deaths 5th day” value [1, 8]?
**A.** The value was 0.

**Q.** And the “Number of deaths Total” value [1, 8]?
**A.** The value was 0.

**Q.** And the “Bacterium isolation positive rate (%)” value ([1]; AMPS model, AMP 16.80 mg per mouse alone)?
**A.** Its value is 10%.

**Q.** And the “Intraperitoneal colony count of animals” value ([1]; AMPS model, AMP 16.80 mg per mouse alone, one value per mouse Nos. 1-10, unit not given in Table 9 (Table 10 note: CFU/mL))?
**A.** The value was 1.054 × 10^1 and 0 (9×).

**Q.** And the “bacterial inhibition effect of the antibiotic” value [2]?
**A.** Its value is “inhibitory effect on Klebsiella pneumoniae in the first two dilutions (1 mg/mL, 0.5 mg/mL)”.

**Q.** And the “drug resistant spectrum of the experimental strain of Klebsiella pneumoniae” value [3]?
**A.** Its value is “R”.

**Q.** What about the “resistance of Pseudomona aeruginosa to the antibiotic” value [4] of the same compound?
**A.** Its value is “R”.

**Q.** What about the “resistance of Escherichia coli to the antibiotic” value [5] of the same compound?
**A.** Its value is “R”.

**Q.** And the “resistance of Klebsiella pneumoniae to the antibiotic” value [6]?
**A.** The value was “R”.

**Q.** What about the “Mortality (%)” value [7, 9] of the same compound?
**A.** The value was 100%.

**Q.** What about the “Number of deaths 1st day” value [7, 9] of the same compound?
**A.** The value was 0.

**Q.** What about the “Number of deaths 2nd day” value [7, 9] of the same compound?
**A.** Its value is 7.

**Q.** What about the “Number of deaths 3rd day” value [7, 9] of the same compound?
**A.** The value was 2.

**Q.** And the “Number of deaths 4th day” value [7, 9]?
**A.** The value was 1.

**Q.** And the “Number of deaths 5th day” value [7, 9]?
**A.** Its value is 0.

**Q.** And the “Number of deaths Total” value [7, 9]?
**A.** The value was 10.

**Q.** And the “protection / control of infection” value [7]?
**A.** Its value is “cannot be protected (all of animals died)”.

**Q.** And the “protection / control of infection” value ([7]; listed as ampicillin)?
**A.** Its value is “cannot be controlled by ampicillin”.

**Q.** And the “Bacterium isolation positive rate (%)” value ([7]; AMPR model, AMP 16.80 mg per mouse alone)?
**A.** The value was 100%.

**Q.** And the “Intraperitoneal colony count of animals” value ([7]; AMPR model, AMP 16.80 mg per mouse alone, one value per mouse Nos. 1-10, unit not given in Table 9 (Table 10 note: CFU/mL))?
**A.** Its value is 3.557 × 10^10 and 3.478 × 10^10 and 3.578 × 10^10 and 3.487 × 10^10 and 3.550 × 10^10 and 3.373 × 10^10 and 3.360 × 10^10 and 6.617 × 10^9 and 4.800 × 10^9 and 5.467 × 10^9.
